What was measured:
DENV-2 16681 strain = assay: microbe, parasite or virus in culture; assay type: cell-based, Dengue virus; conditions: for EC50: DENV-2 16681 eGFP, Vero cells, MOI 0.5, 3 days; for SI: SI=CC50/EC50, DENV-2 antiviral assay
in vitro = conditions: African green monkey
[1] = Dengue virus, DENV2, Vero, 72 h

Structure (SMILES)	EC50 (DENV-2 16681 strain; [1]) [nM]	SI (DENV-2 16681 strain)	CC50 (in vitro) [µM]	EC50 (DENV-2 16681 strain) [nM]
COc1cc(NC(C(=O)N2CCc3ccc(OC(F)(F)F)cc32)c2ccc(Cl)cc2)cc(OCC23CC(C(=O)O)(C2)C3)c1 (racemic) [Compound 9, 3-((3-((1-(4-chlorophenyl)-2-oxo-2-(6-(trifluoro-methoxy)indolin-1-yl)ethyl)amino)-5-methoxyphenoxy)methyl)bicyclo[1.1.1]pentane-1-carboxylic acid]	0.7	14700	9.8	–
COc1cc(NC(C(=O)N2CCc3ccc(OC(F)(F)F)cc32)c2ccc(Cl)cc2)cc(OCCC(=O)O)c1 (racemic) [Compound 12, 3-(3-((1-(4-chlorophenyl)-2-oxo-2-(6-(trifluoromethoxy)indolin-1-yl)ethyl)amino)-5-methoxyphenoxy)propanoic acid]	1.1	9440	11	–
COc1cc(NC(C(=O)N2CCc3ccc(OC(F)(F)F)cc32)c2ccc(Cl)cc2)cc(OCCCCC(=O)O)c1 (racemic) [Compound 13, 5-(3-((1-(4-chlorophenyl)-2-oxo-2-(6-(trifluoromethoxy)-indolin-1-yl)ethyl)amino)-5-methoxyphenoxy)pentanoic acid]	0.25	38100	12	–
COc1cc(CCCCC(=O)O)cc(NC(C(=O)N2CCc3ccc(OC(F)(F)F)cc32)c2ccc(Cl)cc2)c1 (racemic) [Compound 14, 5-(3-((1-(4-chlorophenyl)-2-oxo-2-(6-(trifluoromethoxy)indolin-1-yl)ethyl)amino)-5-methoxyphenyl)pentanoic acid]	0.23	50200	9.6	–
COc1cc(CCCC(=O)O)cc(NC(C(=O)N2CCc3ccc(OC(F)(F)F)cc32)c2ccc(Cl)cc2)c1 (racemic) [Compound 15, 4-(3-((1-(4-chlorophenyl)-2-oxo-2-(6-(trifluoromethoxy)indolin-1-yl)ethyl)amino)-5-methoxyphenyl)butanoic acid]	0.42	25500	8.3	–
COc1cc(COCCC(=O)O)cc(NC(C(=O)N2CCc3ccc(OC(F)(F)F)cc32)c2ccc(Cl)cc2)c1 (racemic) [Compound 16, 3-((3-((1-(4-chlorophenyl)-2-oxo-2-(6-(trifluoromethoxy)indolin-1-yl)ethyl)amino)-5-methoxybenzyl)oxy)propanoic acid]	0.33	56100	16	–
COc1cc(NC(C(=O)N2CCc3ccc(OC(F)(F)F)cc32)c2ccc(Cl)cc2OC)cc(OCCC(C)C(=O)O)c1 (racemic) [Compound 17, 4-(3-((1-(4-chloro-2-methoxyphenyl)-2-oxo-2-(6-(trifluoromethoxy)indolin-1-yl)ethyl)amino)-5-methoxyphenoxy)-2-methylbutanoic acid]	0.18	100043	13	–
COc1cc(NC(C(=O)N2CCc3ccc(OC(F)(F)F)cc32)c2ccc(Cl)cc2OC)cc(OCCC(C)(C)C(=O)O)c1 (racemic) [Compound 18, 4-(3-((1-(4-chloro-2-methoxyphenyl)-2-oxo-2-(6-(trifluoromethoxy)indolin-1-yl)ethyl)amino)-5-methoxyphenoxy)-2,2-dimethylbutanoic acid]	0.49	26100	11	–
COc1cc(NC(C(=O)N2CCc3cc(OC)c(C(F)(F)F)cc32)c2ccc(Cl)cc2)cc(OCCC(C)(C)C(=O)O)c1 (racemic) [Compound 21, 4-(3-((1-(4-chlorophenyl)-2-(5-methoxy-6-(trifluoromethyl)indolin-1-yl)-2-oxoethyl)amino)-5-methoxyphenoxy)-2,2-dimethylbutanoic acid]	1.1	11000	15	–
COc1cc(NC(C(=O)N2CCc3ccc(OC(F)(F)F)cc32)c2ccc(Cl)cc2)cc(OCC(C)CC(=O)O)c1 (single isomer, unassigned) [Compound 4A]	–	3090	9	2.9
COc1cc(NC(C(=O)N2CCc3ccc(OC(F)(F)F)cc32)c2ccc(Cl)cc2)cc(OC23CC(C(=O)O)(C2)C3)c1 (single isomer, unassigned) [Compound 9A]	–	125	11	90
COc1cc(NC(C(=O)N2CCc3ccc(OC(F)(F)F)cc32)c2ccc(Cl)cc2)cc(OCCC(=O)O)c1 (single isomer, unassigned) [Compound 12A]	–	267	10	38
COc1cc(NC(C(=O)N2CCc3ccc(OC(F)(F)F)cc32)c2ccc(Cl)cc2)cc(OCCCCC(=O)O)c1 (single isomer, unassigned) [Compound 13A]	–	5720	9.1	1.4
COc1cc(CCCC(=O)O)cc(NC(C(=O)N2CCc3ccc(OC(F)(F)F)cc32)c2ccc(Cl)cc2)c1 (single isomer, unassigned) [Compound 15A]	–	171	8.4	49
COc1cc(NC(C(=O)N2CCc3ccc(OC(F)(F)F)cc32)c2ccc(Cl)cc2OC)cc(OCCC(C)C(=O)O)c1 (single isomer, unassigned) [Compound 17A]	–	147	11	76
COc1cc(NC(C(=O)N2CCc3ccc(OC(F)(F)F)cc32)c2ccc(Cl)cc2OC)cc(OCCC(C)(C)C(=O)O)c1 (single isomer, unassigned) [Compound 18A]	–	1160	12	9.9
COc1cc(NC(C(=O)N2CCc3cc(OC)c(C(F)(F)F)cc32)c2ccc(Cl)cc2)cc(OCCC(C)C(=O)O)c1 (single isomer, unassigned) [Compound 20A]	–	27	12	440
COc1cc(NC(C(=O)N2CCc3cc(OC)c(C(F)(F)F)cc32)c2ccc(Cl)cc2)cc(OCCC(C)(C)C(=O)O)c1 (single isomer, unassigned) [Compound 21A]	–	687	11	16
COc1cc(NC(C(=O)N2CCc3cc(F)c(OC(F)(F)F)cc32)c2ccc(Cl)cc2)cc(OCC2CC2C(=O)O)c1 (single isomer, unassigned) [Compound 26A, (1R*,2R*)-2-((3-((1-(4-chlorophenyl)-2-(5-fluoro-6-(trifluoromethoxy)indolin-1-yl)-2-oxoethyl)amino)-5-methoxyphenoxy)methyl)-cyclopropanecarboxylic Acid]	–	>12200	14	0.1
COc1cc(NC2CC(C(=O)O)C2)cc(NC(C(=O)N2CCc3ccc(OC(F)(F)F)cc32)c2ccc(Cl)cc2)c1 (single isomer, unassigned) [Compound 33A]	–	1110	17	13
COc1cc(NC(C(=O)N2CCc3ccc(OC(F)(F)F)cc32)c2ccc(Cl)cc2)cc(OCC2CC2C(=O)O)c1 (stereo not drawn) [Compound 6AA]	–	8870	8.3	0.74
COc1cc(NC(C(=O)N2CCc3ccc(OC(F)(F)F)cc32)c2ccc(Cl)cc2)cc(OC2CC(C(=O)O)C2)c1 (stereo not drawn) [Compound 7]	–	14600	12	0.49
COc1cc(NC(C(=O)N2CCc3ccc(OC(F)(F)F)cc32)c2ccc(Cl)cc2)cc(OCC2CC(C(=O)O)C2)c1 (stereo not drawn) [Compound 10]	–	44900	12	0.27
COc1cc(NC(C(=O)N2CCc3ccc(OC(F)(F)F)cc32)c2ccc(Cl)cc2OC)cc(OCC2CC2C(=O)O)c1 (stereo not drawn) [Compound 19AA]	–	1030	11	10
COc1cc(NC(C(=O)N2CCc3cc(OC)c(C(F)(F)F)cc32)c2ccc(Cl)cc2)cc(OCC2CC2C(=O)O)c1 (stereo not drawn) [Compound 22AA]	–	798	13	16
COc1cc(NC(C(=O)N2CCc3cc(OC)c(C(F)(F)F)cc32)c2ccc(Cl)cc2)cc(O[C@H]2C[C@@H](C(=O)O)C2)c1 (stereo partly drawn) [Compound 23, (1s,3s)-3-(3-((1-(4-chlorophenyl)-2-(5-methoxy-6-(trifluoromethyl)indolin-1-yl)-2-oxoethyl)amino)-5-methoxyphenoxy)cyclobutene-carboxylic Acid]	0.093	116424	12	–
COc1cc(NC(C(=O)N2CCc3cc(OC)c(C(F)(F)F)cc32)c2ccc(Cl)cc2)cc(OC2CC(C(=O)O)C2)c1 (stereo not drawn) [Compound 23A]	–	321	11	34
COc1cc(NC(C(=O)N2CCc3cc(OC)c(C(F)(F)F)cc32)c2ccc(Cl)cc2)cc(OCC2CC(C(=O)O)C2)c1 (stereo not drawn) [Compound 24, (1s,3s)-3-((3-((1-(4-chlorophenyl)-2-(5-methoxy-6-(trifluoromethyl)indolin-1-yl)-2-oxoethyl)amino)-5-methoxyphenoxy)methyl)-cyclobutanecarboxylic Acid]	–	18300	12	0.64
COc1cc(NC(C(=O)N2CCc3cc(F)c(OC(F)(F)F)cc32)c2ccc(Cl)cc2)cc(OC2CC(C(=O)O)C2)c1 (stereo not drawn) [Compound 27, ((1s,3s)-3-(3-((1-(4-chlorophenyl)-2-(5-fluoro-6-(trifluoromethoxy)indolin-1-yl)-2-oxoethyl)amino)-5-methoxyphenoxy)cyclobutene-carboxylic Acid]	–	149640	13	0.067
COc1cc(NC(C(=O)N2CCc3cc(OC)c(Cl)cc32)c2ccc(Cl)cc2)cc(OC2CC(C(=O)O)C2)c1 (stereo not drawn) [Compound 32, (1s,3s)-3-(3-((2-(6-chloro-5-methoxyindolin-1-yl)-1-(4-chlorophenyl)-2-oxoethyl)amino)-5-methoxyphenoxy)cyclobutanecarboxylic Acid]	–	130935	15	0.13
